From article PMC11056319, “Targeting PRMT9-mediated arginine methylation suppresses cancer stem cell maintenance and elicits cGAS-mediated anticancer immunity” (Nature Cancer, 2024) come the findings set out here.

As a reminder, the viability is a read-out of living cells in per cent, often relative to untreated cells.

The test system of the assay is Molm13. Description: cells. On the set-up: Molm13 cell viability screen of virtual-screening hits, 4 days of treatment, per cent of control. Particulars: Homo sapiens, MOLM-13, 96 h, 4 days. On the procedure: We performed virtual screening. Briefly, we screened compounds for binding affinity to PRMT9; compounds were from the National Cancer Institute (NCI) and ZINC library (Fig. 4a,b). […] We used doses of 1 and 5 µM in a Molm13 cell-based viability assay (Extended Data Fig. 6a). […] Specifically, we assessed their effects on PRMT9 catalysis (Extended Data Fig. 6b). […] Cells were treated for 4 days with 1 or 5 μM compounds. For each compound, the number represents its library ID. Experiments were triplicated; P values were derived from t tests. b, R493 methylation assay. […] Catalytic activity was assessed by anti-R493 antibody. Synthesized R493me peptide as positive control. c, Catalysis screen of top 20 compounds. PRMT9 protein was pretreated with indicated compound (10 μM), then incubated with PABPC1 peptides and SAM. d, e, Catalytic activity of indicated compounds based on R493 methylation assay (d). Inhibition curves were calculated based on intensity of dots and normalized to DMSO (e). […] LD2 is designed based on NSC641396 (g). Docking model of NSC641396 in the catalytic pocket (f). h, IC50 analysis of LD2 in B-NHL lines. Cells were treated for 4 days with LD2. […] Cells were treated with a dose titration of 0.5–40 μM LD2 for 48 hr. The inhibition activity of LD2 to PRMT9 (right red curve) was evaluated by calculating the normalized PABPC1 R493 methylation signal. The inhibition activity of LD2 to PRMT5 (right blue curve) was evaluated by calculating the normalized SmB’B’ methylation signal (supplementary Fig. 2). k, Vina docking of LD2 with PRMT9, PRMT5, CARM1 or PRMT7 was performed, and the average docking scores (kcal/mol, with standard deviation) were shown. l, Molecular dynamics simulation analyses of LD2 with PRMT9 or PRMT5.
Turning to `Cc1cc(N=Nc2c(O)c3ccccc3[nH]c2=O)ccc1N=Nc1ccc(C(=O)N(C)C)cc1` [NSC58052], the viability at 1 µM is 96% and the viability at 5 µM came out at 80.5%.

As to `COc1ccc(C2OC3=C(Nc4cc(C)c(C)cc4N3)C2=O)cc1` (stereo not shown) [NSC372275], the viability at 1 µM came to 95.6%.

As to `CCNc1nc(Cl)nc(-c2cn(-c3ccccc3)c3ccccc23)n1` [NSC142446], the viability at 1 µM stood at 87.1%.

Consider `CO[C@@H]1[C@@H](OC(=O)c2ccc(C)[nH]2)[C@@H](O)[C@H](Oc2ccc3c(O)c(NC(=O)c4ccc(O)c(CC=C(C)C)c4)c(=O)oc3c2Cl)OC1(C)C` [NSC227186], for which the viability at 5 µM is 110%.

Take `O=C(Nc1ccccc1F)Oc1cccc(OC(=O)Nc2ccccc2F)c1` [NSC214026]: the viability at 1 µM amounted to 92.2% and the viability at 5 µM is 91%.

Regarding `Nc1ccc(-c2nc3nc(N)nc(N)c3nc2-c2ccc(N)cc2)cc1` [NSC61642], the viability at 5 µM worked out at 116%.

As to `Cc1ccc(N2CCN(CC(O)COc3cccc4ccccc34)CC2)cc1` (stereo not shown) [NSC91402], the viability at 1 µM was found to be 156% and the viability at 5 µM came out at 145%.

As to `O=C1C(=Nc2cccc(Cl)c2)CC(c2ccc(Cl)cc2)N1c1cccc(Cl)c1` (stereo not shown) [NSC13294], the viability at 1 µM was found to be 98.3% and the viability at 5 µM worked out at 97.9%.

As for `CCN(CC)c1nc(Cl)nc(Nc2ccc3cc(-c4ccccc4)c(=O)oc3c2)n1` [NSC338963], the viability at 1 µM came out at 114% and the viability at 5 µM is 110%.

As to `Cc1cc2cc3c(=O)[nH]c(=O)[nH]c3nc2cc1C` [NSC109174], the viability at 5 µM stood at 79.9%.

For the molecule `COC(=O)[C@@H]1[C@H](O)[C@H](C)[C@H](O)[C@H](C)/C=C\C=C(/C)C(=O)Nc2c(C)c(OC(C)=O)c3c(c2O)C(=O)C(C)=C2OCOC(=C23)/C(C)=C/[C@@](C)(O)[C@H](O)[C@@H](C)[C@H]1O` [NSC19990], the viability at 1 µM came to 68.6% and the viability at 5 µM is 83.8%.

Consider `Cc1cccc2c1c1ccc3c(c1n2C)C(=O)C=CC3=O` [NSC645330], for which the viability at 1 µM amounted to 52.5% and the viability at 5 µM stood at 10%.

With `N#Cc1ccc(NC(=O)Nc2ccc(Oc3ccc(NC(=O)Nc4ccc(C#N)cc4)cc3)cc2)cc1` [NSC80734], the viability at 5 µM stood at 67.2%.

As to `O=C(Nc1ccc(C2=NCCN2)cc1)c1ccc(Cl)c(C(=O)Nc2ccc(C3=NCCN3)cc2)c1` [NSC67436], the viability at 1 µM was determined as 95.2% and the viability at 5 µM is 81.3%.

Turning to `CCn1c2ccccc2c2cc(NC(=O)c3ccccc3-c3ccccc3C(=O)O)ccc21` [NSC132232], the viability at 1 µM was found to be 91.3%.

Consider `COc1ccc2nc(-c3ccc(Cl)cc3)cc(C(=O)O)c2c1` [NSC39984], for which the viability at 1 µM amounted to 76.8% and the viability at 5 µM worked out at 79.5%.

Regarding `N#C/C(=C\C=C\c1ccccc1)c1nc(-c2ccc(Cl)cc2)cs1` [NSC310347], the viability at 1 µM amounted to 69.3% and the viability at 5 µM came to 74.4%.

On to `O=C(Nc1cccc2ccccc12)c1cc2c(cc1Br)OCO2` [NSC292923], for which the viability at 1 µM was 68.9% and the viability at 5 µM came out at 68.3%.

On to `O=[N+]([O-])c1ccc(C2CC(c3ccccc3)=Nc3ccccc3S2)cc1` (stereo not shown) [NSC270738], for which the viability at 1 µM came out at 84.6%.

With `c1ccc(-n2c3ccccc3c3ccccc32)cc1` [NSC10416], the viability at 1 µM came to 99.1% and the viability at 5 µM was found to be 81.7%.

`O=C(Oc1ccc(NC(=O)c2cc3c(cc2Br)OCO3)cc1)c1ccccc1` [NSC268487]: the viability at 1 µM was found to be 83.1% and the viability at 5 µM came to 72.1%.

For `COc1ccc(/C=C2\Cc3ccccc3C2=O)cc1OC` [NSC643174], the viability at 1 µM amounted to 116% and the viability at 5 µM was determined as 81%.

In the case of `O=C(O)c1ccccc1-c1ccccc1C(=O)Nc1ccc2c(c1)nc(O)c1ccccc12` [NSC127133], the viability at 1 µM is 99% and the viability at 5 µM stood at 102%.

On to `C[C@]12C[C@H](O)[C@H]3[C@@H](CCC4=CC(=O)CC[C@@]43C)[C@@H]1CC[C@@H]2c1csc(-c2ccccc2)n1` [NSC93354], for which the viability at 1 µM was 91.9% and the viability at 5 µM was determined as 69.1%.

Take `CC1=CC(C)(C)Nc2ccc(Cc3ccc4c(c3)C(C)=CC(C)(C)N4)cc21` [NSC217697]: the viability at 1 µM turned out to be 69.3% and the viability at 5 µM was determined as 74.4%.

Turning to `O=C(Nc1ccc(Br)c2ccccc12)c1ccc2ccccc2c1O` [NSC601359], the viability at 5 µM turned out to be 72.7%.

Consider `CN1CCN(C(=O)Nc2cccc(-c3ccccc3)c2)CC1` [NSC39352], for which the viability at 1 µM came to 96.7%.

As to `COc1ccc(NC(=O)c2cc3ccc4c5ccccc5[nH]c4c3cc2O)cc1` [NSC50654], the viability at 1 µM was found to be 127% and the viability at 5 µM was determined as 134%.
